Measured values from patent US20250367160A1, “USE OF GUAIJAVERIN IN PREPARATION OF EYE PROTECTION PRODUCT” (Innovation Center of Yangtze River Delta, ZJU, priority 2024, published 2025).

Test system: ocular apoptotic cells of the zebrafish
Test: Anti-blue light eye protection efficacy, AO staining of ocular apoptotic cells in zebrafish blue light eye damage model
Assay type: in vivo
Conditions: 62.5 μg/mL, aqueous, 28° C., 1 d, n = 10; model group 45833 ± 4825, normal control 12203 ± 1124
Protocol: Wild-type AB zebrafish at 1 dpf were randomly selected and irradiated with blue light after membrane rupture to establish the zebrafish blue light eye damage model. Model zebrafish with desirable development status were selected at 3 dpf and randomly distributed in 6-well plates, with 30 zebrafish in each well (experimental group) were treated. Different concentrations of guaijaverin (see Table 2 for concentrations) were administered aqueously, and lutein at a concentration of 62.5 μg/mL were used as a positive control, while a normal control group and a model group were also set up, with a volume of 3 mL per well. After 1 d of treatment at 28° C., the zebrafish in each experimental group were stained with AO in the dark for 30 min and washed 3 times with standard dilution water. 10 zebrafish were randomly selected from each experimental group and photographed under a fluorescence microscope. The data were analyzed and collected using Image J software. The fluorescence intensity of ocular apoptotic cells of the zebrafish was statistically analyzed. The anti-blue light eye protection efficacy of guaijaverin was evaluated based on the statistical analysis results of the above indicators. The statistical result was expressed as mean±SE.

## CC1=C[C@H](O)CC(C)(C)[C@H]1/C=C/C(C)=C/C=C/C(C)=C/C=C/C=C(C)/C=C/C=C(C)/C=C/C1=C(C)C[C@@H](O)CC1(C)C [Lutein, lutein, reference compound]
  Fluorescence intensity of ocular apoptotic cells (pixel, mean ± SE): 21751 ± 2993 pixel
